Source: patent US6143769A, “Phenylacetic acid benzylamides” (Karl Thomae GmbH, priority 1983, dated 2000)
Read-outs that look alike come from different tables or passages of the source.

Experiments:
Assay type in all cases: in vivo
blood glucose = assay: Test for hypoglycemic activity in fasted female rats (oral); details: Rattus norvegicus, po, read-out: Change in glucose content compared with control
Protocol: Blood samples were taken immediately before the administration of the test compound and 1, 2, 3 and 4 hours afterwards, in each case from the retroorbital Venous plexus. 50 μl of each sample were deproteinated with 0.5 ml of 0.33 N perchloric acid and centrifuged. The glucose in the supernatant fluid was measured using the hexokinase method with the aid of an analytical photometer. The statistical evaluation was made using the t-test according to Student with p=0.05 as the limit of significance.

mice [1] = assay: Acute toxicity, single oral dose 2,000 mg/kg, mice; details: 2,000 mg/kg p.o., 5 male and 5 female mice, 14 days
mice [2] = assay: Acute toxicity of compound N, single oral dose, mice; details: 14 days
Protocol: The toxic effect of a single dose of compound N administered orally (suspended in 1% methyl cellulose) was tested in male and female mice of our own strain weighing from 20-26 g over an observation period of 14 days.

Structure (SMILES) | change in vivo at 1 mg/kg (blood glucose; 1 h) [%] | change in vivo at 1 mg/kg (blood glucose; 2 h) [%] | change in vivo at 1 mg/kg (blood glucose; 3 h) [%] | change in vivo at 1 mg/kg (blood glucose; 4 h) [%] | Deaths (mice [1]) | change in vivo at 0.1 mg/kg (blood glucose; 1 h) [%] | change in vivo at 0.1 mg/kg (blood glucose; 2 h) [%] | change in vivo at 0.1 mg/kg (blood glucose; 3 h) [%] | change in vivo at 0.1 mg/kg (blood glucose; 4 h) [%] | Deaths (mice [2]; 1000 mg/kg p.o.) | Approximate acute toxicity (mice [2]; p.o.) [mg/kg]
CCOc1cc(CC(=O)NC(c2ccccc2)c2ccccc2N2CCCCC2)ccc1C(=O)O (stereo not drawn) [D, 2-ethoxy-4-[N-(α-phenyl-2-piperidino-benzyl)-aminocarbonylmethyl]-benzoic acid] | -42 | -54 | -37 | -34 | only one animal in this group died |  |  |  |  |  | 
CCOc1cc(CC(=O)NC(CC(C)C)c2ccccc2N2CCCCC2)ccc1C(=O)O (racemic) [N, 2-ethoxy-4-[N-{1-(2-piperidino-phenyl)-3-methyl-1-butyl}-aminocarbonylmethyl]-benzoic acids] |  |  |  |  |  | -38 | -44 | -41 | -40 | 0 out of 6 animals died | > 1000
